Test results reported in ChEMBL document CHEMBL6103589, “Synthesis and evaluation of novel ebselen derivatives as urease inhibitors for combating Helicobacter pylori infections” (Eur J Med Chem, 2025).
Active and inactive are the calls of the source. The calls are words filed in the database; no cut-off is given here.

What was measured:
Helicobacter pylori [1] = assay: Antibacterial activity against Helicobacter pylori ATCC 43504 assessed as inhibition of bacterial colonies at 8 ug/mL incubated for 24 hrs by crystal violet based staining based analysis relative to control; type: functional; set-up: scale not given: the % may be the effect or the level left; details: dose 8 µg/ml
Helicobacter pylori [2] = assay: Protection against Helicobacter pylori ATCC 43504 infected (MOI 400:1) in human GES1 cell injury model assessed as reduction in cell apoptosis rate at 50 uM pre-treated for 2 hrs followed by bacterial infection measured after 6 hrs by Annexin/V-FITC staining based flow cytometry analysis (reference value: 56.03%); type: functional; set-up: scale not given: the % may be the effect or the level left; details: time 8 hrs
Helicobacter pylori [3] = assay: Protection against Helicobacter pylori ATCC 43504 infected (MOI 25:1) in human GES1 cell injury model assessed as viable cells at 25 uM pre-treated for 2 hrs measured after 6 hrs by Annexin/V-FITC staining based flow cytometry analysis (reference value: 89.14%); type: functional; details: time 8 hrs
Helicobacter pylori [4] = assay: (§1) Protection against Helicobacter pylori ATCC 43504 infected (MOI 25:1) in human GES1 cell injury model assessed as late apoptotic cells at 25 uM pre-treated for 2 hrs followed by bacterial infection measured after 6 hrs by Annexin/V-FITC staining based flow cytometry analysis (reference value: 0.31%); type: functional; details: time 8 hrs
Helicobacter pylori [5] = assay: Protection against Helicobacter pylori ATCC 43504 infected (MOI 50:1) in human GES1 cell injury model assessed as viable cells at 50 uM pre-treated for 2 hrs followed by bacterial infection measured after 6 hrs by Annexin/V-FITC staining based flow cytometry analysis (reference value: 81.14%); type: functional; details: time 8 hrs
Helicobacter pylori [6] = assay: Protection against Helicobacter pylori ATCC 43504 infected (MOI 50:1) in human GES1 cell injury model assessed as late apoptotic cells at 50 uM pre-treated for 2 hrs followed by bacterial infection measured after 6 hrs by Annexin/V-FITC staining based flow cytometry analysis (reference value: 2.85%); type: functional; details: time 8 hrs
Helicobacter pylori [7] = assay: Protection against Helicobacter pylori ATCC 43504 infected (MOI 50:1) in human GES1 cell injury model assessed as necrotic cells at 50 uM pre-treated for 2 hrs followed by bacterial infection measured after 6 hrs by Annexin/V-FITC staining based flow cytometry analysis (reference value: 2.85%); type: functional; details: time 8 hrs
Helicobacter pylori [8] = assay: Protection against Helicobacter pylori ATCC 43504 infected (MOI 100:1) in human GES1 cell injury model assessed as viable cells followed by bacterial infection at 25 uM pre-treated for 2 hrs measured after 6 hrs by Annexin/V-FITC staining based flow cytometry analysis (reference value: 68.36%); type: functional; details: time 8 hrs
Helicobacter pylori [9] = assay: as §1, with “100:1)” for “25:1)”, “4.16%)” for “0.31%)”; type: functional; details: time 8 hrs
Helicobacter pylori [10] = assay: Protection against Helicobacter pylori ATCC 43504 infected (MOI 200:1) in human GES1 cell injury model assessed as viable cells at 25 uM pre-treated for 2 hrs followed by bacterial infection measured after 6 hrs by Annexin/V-FITC staining based flow cytometry analysis (reference value: 57.87%); type: functional; details: time 8 hrs
Helicobacter pylori [11] = assay: Protection against Helicobacter pylori ATCC 43504 infected (MOI 200:1) in human GES1 cell injury model assessed as necrotic cells at 50 uM pre-treated for 2 hrs followed by bacterial infection measured after 6 hrs by Annexin/V-FITC staining based flow cytometry analysis (reference value: 3.92%); type: functional; details: time 8 hrs
Helicobacter pylori [12] = assay: Protection against Helicobacter pylori ATCC 43504 infected (MOI 300:1) in human GES1 cell injury model assessed as viable cells at 25 uM pre-treated for 2 hrs followed by bacterial infection measured after 6 hrs by Annexin/V-FITC staining based flow cytometry analysis (reference value: 47.43%); type: functional; details: time 8 hrs
Helicobacter pylori [13] = assay: as §1, with “300:1)” for “25:1)”, “11.95%)” for “0.31%)”; type: functional; details: time 8 hrs
Helicobacter pylori [14] = assay: Protection against Helicobacter pylori ATCC 43504 infected (MOI 300:1) in human GES1 cell injury model assessed as viable cells at 50 uM pre-treated for 2 hrs followed by bacterial infection measured after 6 hrs by Annexin/V-FITC staining based flow cytometry analysis (reference value: 47.43%); type: functional; details: time 8 hrs
Helicobacter pylori [15] = assay: Protection against Helicobacter pylori ATCC 43504 infected (MOI 400:1) in human GES1 cell injury model assessed as viable cells at 25 uM pre-treated for 2 hrs followed by bacterial infection measured after 6 hrs by Annexin/V-FITC staining based flow cytometry analysis (reference value: 37.61%); type: functional; details: time 8 hrs
Helicobacter pylori [16] = assay: Protection against Helicobacter pylori ATCC 43504 infected (MOI 400:1) in human GES1 cell injury model assessed as necrotic cells at 25 uM pre-treated for 2 hrs followed by bacterial infection measured after 6 hrs by Annexin/V-FITC staining based flow cytometry analysis (reference value: 6.36%); type: functional; details: time 8 hrs
Helicobacter pylori [17] = assay: Protection against Helicobacter pylori ATCC 43504 infected (MOI 400:1) in human GES1 cell injury model assessed as necrotic cells at 50 uM pre-treated for 2 hrs followed by bacterial infection measured after 6 hrs by Annexin/V-FITC staining based flow cytometry analysis (reference value: 6.36%); type: functional; details: time 8 hrs
GES1 [18] = assay: Induction of ROS generation in human GES1 cells infected (25 to 400:1 MOI) with Helicobacter pylori ATCC 43504 assessed as increase in fluorescence intensity at 25 to 50 uM by DCFH-DA based Immunofluorescence analysis; type: functional, cell-based; details: dose 25-50 µM
GES1 [19] = assay: Induction of DNA damage in human GES1 cells infected (25 to 400:1 MOI) with Helicobacter pylori ATCC 43504 assessed as decrease in gammaH2AX levels by measuring fluorescence intensity at 25 to 50 uM by SP8 laser confocal microscopic analysis; type: functional, cell-based; details: dose 25-50 µM
[20] = Stability of the compound in simulated gastric fluid; type: physicochemical; details: simulated gi fluid
Helicobacter pylori [21] = assay: In vivo protection against Helicobacter pylori ATCC 43504 infected in BALB/c mouse gastric mucosa model assessed as reduction in hyperplasia at 25 mg/kg administered once a day for 2 weeks by HE staining based analysis; type: functional, organism-based
Helicobacter pylori [22] = assay: In vivo protection against Helicobacter pylori ATCC 43504 infected in BALB/c mouse gastric mucosa model assessed as appearance of intact muscularis mucosa at high dose administered once a day for 2 weeks by HE staining based analysis; type: functional, organism-based
Helicobacter pylori [23] = assay: In vivo protection against Helicobacter pylori ATCC 43504 infected in BALB/c mouse gastric mucosa model assessed as effect on hyperplasia at high dose administered once a day for 2 weeks by HE staining based analysis; type: functional, organism-based
Helicobacter pylori [24] = assay: In vivo protection against Helicobacter pylori ATCC 43504 infected in BALB/c mouse gastric mucosa model assessed as effect on inflammatory cell infiltration at low dose administered once a day for 2 weeks by HE staining based analysis; type: functional, organism-based
[25] = Acute toxicity in BALB/c mouse assessed as change in body weight at 1 g/Kg, po single dose administered for 7 days; type: organism-based; details: in vivo, 1000 mg/kg, 168 h, time 7 day
[26] = Acute toxicity in BALB/c mouse assessed as pathological abnormality in liver at 1 g/Kg, po single dose administered for 7 days by HE staining based analysis; type: organism-based; details: in vivo, 1000 mg/kg, 168 h, time 7 day
[27] = Acute toxicity in BALB/c mouse assessed as pathological abnormality in kidney at 1 g/Kg, po single dose administered for 7 days by HE staining based analysis; type: organism-based; details: in vivo, 1000 mg/kg, 168 h, time 7 day

## O=C(Oc1n[se]c2ccccc12)c1cccc(F)c1
Helicobacter pylori [1]
  Activity: 100%
Helicobacter pylori [2]
  Activity: 47.7%
Helicobacter pylori [3]
  Activity: 98.45%
Helicobacter pylori [4]
  Activity: 0.02%
Helicobacter pylori [5]
  Activity: 97.06%
Helicobacter pylori [6]
  Activity: 0.02%
Helicobacter pylori [7]
  Activity: 0.02%
Helicobacter pylori [8]
  Activity: 91.76%
Helicobacter pylori [9]
  Activity: 0.17%
Helicobacter pylori [10]
  Activity: 87.8%
Helicobacter pylori [11]
  Activity: 0.8%
Helicobacter pylori [12]
  Activity: 83.86%
Helicobacter pylori [13]
  Activity: 0.02%
Helicobacter pylori [14]
  Activity: 92.33%
Helicobacter pylori [15]
  Activity: 82.13%
Helicobacter pylori [16]
  Activity: 0.32%
Helicobacter pylori [17]
  Activity: 2.26%
GES1 [18]
  Activity: Active
GES1 [19]
  Activity: Active
[20]
  Stability: Stable
Helicobacter pylori [21]
  Activity: Active
Helicobacter pylori [22]
  Activity: Active
Helicobacter pylori [23]
  Activity: inactive
Helicobacter pylori [24]
  Activity: Active
[25]
  Activity: Non-toxic
[26]
  Activity: Non-toxic
[27]
  Activity: Non-toxic
